In patent publication US20060258681A1, “3-Z-[1-(4-(N-((4-Methyl-piperazin-1-yl)-methylcarbonyl)-N-methyl-amino)-anilino)-1-phenyl-methylene]-6-methoxycarbonyl-2-indolinone-monoethanesulphonate and the use thereof as a pharmaceutical composition” (priority 2002, published 2006):

How the values were obtained:
[1] = target: InsR (Homo sapiens, UniProt P06213); assay: standard known kinase inhibition assay, InsR; assay type: biochemical
Description: (§1) Experimental studies have shown that a metabolite of the compound 3-Z-[1-(4-(N-((4-methyl-piperazin-1-yl)-methylcarbonyl)-N-methyl-amino)-anilino)-1-phenyl-methylene]-6-methoxycarbonyl-2-indolinone-monoethanesulphonate is the de-esterified 3-Z-[1-(4-(N-((4-methyl-piperazin-1-yl)-carbonyl)-N-methyl-amino)-anilino)-1-phenyl-methylene]-6-carboxy-2-indolinone. The in-vitro inhibitory activity of this metabolite on several kinases has been evaluated, using standard known kinase inhibition assays as well as a standard known cellular proliferation inhibition assay (inhibition of the proliferation of Human Umbilical Cord Endothelial Cells stimulated by the VEGF, the so-called “HUVEC cellular assay”). These experimental results have shown that this metabolite inhibits several kinases, such as VEGFR-2, VEGFR-3, Her-2, FGFR-1, PDGFR-alpha or InsR, as well as the proliferation of HUVEC VEGF stimulated cells.

[2] = target: VEGFR-2 (Homo sapiens, UniProt P35968); assay: standard known kinase inhibition assay, VEGFR-2; assay type: biochemical
Description: as §1

[3] = target: FGFR-1 (Homo sapiens, UniProt P11362); assay: standard known kinase inhibition assay, FGFR-1; assay type: biochemical
Description: as §1

[4] = target: VEGFR-3 (Homo sapiens, UniProt P35916); assay: standard known kinase inhibition assay, VEGFR-3; assay type: biochemical
Description: as §1

[5] = test system: Human Umbilical Cord Endothelial Cells stimulated by the VEGF; assay: HUVEC cellular assay (cellular proliferation inhibition); assay type: cell-based
Description: as §1

[6] = target: PDGFR-alpha (Homo sapiens, UniProt P16234); assay: standard known kinase inhibition assay, PDGFR-alpha; assay type: biochemical
Description: as §1

[7] = target: Her-2 (Homo sapiens, UniProt P04626); assay: standard known kinase inhibition assay, Her-2; assay type: biochemical
Description: as §1

[8] = hygroscopicity; assay type: physicochemical
[9] = amorphisation during grinding and compression; assay type: physicochemical
[10] = solubility in physiologically acceptable solvents; assay type: physicochemical

Sequence of InsR (P06213 28-1382, species assumed): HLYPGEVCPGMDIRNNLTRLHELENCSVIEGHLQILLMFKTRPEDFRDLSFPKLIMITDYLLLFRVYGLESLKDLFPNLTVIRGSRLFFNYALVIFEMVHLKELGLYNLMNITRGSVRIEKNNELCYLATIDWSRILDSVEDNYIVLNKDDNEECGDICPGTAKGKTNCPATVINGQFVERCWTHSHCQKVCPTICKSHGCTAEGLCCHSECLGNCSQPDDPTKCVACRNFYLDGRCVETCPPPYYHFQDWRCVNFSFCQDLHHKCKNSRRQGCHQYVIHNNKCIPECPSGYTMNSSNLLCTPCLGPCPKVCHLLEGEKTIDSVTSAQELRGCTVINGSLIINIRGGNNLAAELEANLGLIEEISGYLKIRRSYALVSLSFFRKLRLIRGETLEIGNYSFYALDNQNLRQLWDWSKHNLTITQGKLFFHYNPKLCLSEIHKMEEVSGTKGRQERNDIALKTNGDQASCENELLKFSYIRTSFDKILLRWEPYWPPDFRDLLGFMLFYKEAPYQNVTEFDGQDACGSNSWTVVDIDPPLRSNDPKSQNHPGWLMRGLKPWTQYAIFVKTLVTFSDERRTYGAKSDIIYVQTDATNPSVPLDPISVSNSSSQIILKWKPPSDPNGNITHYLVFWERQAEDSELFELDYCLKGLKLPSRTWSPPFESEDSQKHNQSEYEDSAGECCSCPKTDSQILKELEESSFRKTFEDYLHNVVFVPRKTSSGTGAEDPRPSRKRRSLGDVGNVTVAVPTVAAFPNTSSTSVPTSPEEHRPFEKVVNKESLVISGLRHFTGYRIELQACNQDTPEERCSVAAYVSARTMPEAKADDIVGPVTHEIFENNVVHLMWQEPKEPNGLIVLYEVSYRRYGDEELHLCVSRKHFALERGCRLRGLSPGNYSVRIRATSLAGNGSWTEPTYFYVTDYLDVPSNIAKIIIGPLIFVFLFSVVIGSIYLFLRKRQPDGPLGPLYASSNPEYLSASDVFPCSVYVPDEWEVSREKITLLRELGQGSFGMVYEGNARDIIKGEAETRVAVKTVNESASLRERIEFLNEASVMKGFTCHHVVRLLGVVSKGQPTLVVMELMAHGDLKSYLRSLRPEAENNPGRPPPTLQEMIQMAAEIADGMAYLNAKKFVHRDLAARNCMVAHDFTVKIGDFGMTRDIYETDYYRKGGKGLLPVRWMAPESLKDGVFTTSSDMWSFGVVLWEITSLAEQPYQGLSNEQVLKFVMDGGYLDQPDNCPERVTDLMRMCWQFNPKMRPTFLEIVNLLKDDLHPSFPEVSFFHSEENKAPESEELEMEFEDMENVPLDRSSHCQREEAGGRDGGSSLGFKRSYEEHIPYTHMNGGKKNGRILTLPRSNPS
Sequence of Her-2 (P04626 23-1255, species assumed): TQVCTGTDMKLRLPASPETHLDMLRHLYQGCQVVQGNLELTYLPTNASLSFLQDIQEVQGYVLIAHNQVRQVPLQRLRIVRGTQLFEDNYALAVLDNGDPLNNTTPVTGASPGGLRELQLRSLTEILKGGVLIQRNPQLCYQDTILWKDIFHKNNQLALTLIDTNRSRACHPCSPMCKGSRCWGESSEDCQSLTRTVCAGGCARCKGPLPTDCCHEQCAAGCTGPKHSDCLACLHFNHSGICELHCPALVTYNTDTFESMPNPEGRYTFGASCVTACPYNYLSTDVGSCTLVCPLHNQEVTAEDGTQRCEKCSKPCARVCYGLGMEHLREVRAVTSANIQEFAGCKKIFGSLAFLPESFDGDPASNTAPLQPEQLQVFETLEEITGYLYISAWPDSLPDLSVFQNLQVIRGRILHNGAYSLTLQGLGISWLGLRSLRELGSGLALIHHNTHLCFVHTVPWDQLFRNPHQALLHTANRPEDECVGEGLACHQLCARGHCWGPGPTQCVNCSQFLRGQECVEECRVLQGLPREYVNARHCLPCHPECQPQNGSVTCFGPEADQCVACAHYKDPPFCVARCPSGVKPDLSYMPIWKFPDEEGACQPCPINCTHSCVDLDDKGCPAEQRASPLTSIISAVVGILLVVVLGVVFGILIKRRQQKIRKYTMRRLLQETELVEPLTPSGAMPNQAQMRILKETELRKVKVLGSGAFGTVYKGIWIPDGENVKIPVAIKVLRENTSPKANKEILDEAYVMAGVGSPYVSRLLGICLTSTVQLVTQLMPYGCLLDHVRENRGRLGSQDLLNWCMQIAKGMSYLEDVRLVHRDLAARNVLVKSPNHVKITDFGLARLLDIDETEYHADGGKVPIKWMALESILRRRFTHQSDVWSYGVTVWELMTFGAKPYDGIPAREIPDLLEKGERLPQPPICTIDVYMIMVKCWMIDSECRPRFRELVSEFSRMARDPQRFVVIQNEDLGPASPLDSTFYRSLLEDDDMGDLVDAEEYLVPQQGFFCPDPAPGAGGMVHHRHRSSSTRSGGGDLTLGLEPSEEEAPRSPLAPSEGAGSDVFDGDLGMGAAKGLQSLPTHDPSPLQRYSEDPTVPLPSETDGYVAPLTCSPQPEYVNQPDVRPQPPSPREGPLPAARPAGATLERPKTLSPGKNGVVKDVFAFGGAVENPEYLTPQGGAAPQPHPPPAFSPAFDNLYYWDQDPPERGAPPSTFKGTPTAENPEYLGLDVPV
Sequence of FGFR-1 (P11362 22-822, species assumed): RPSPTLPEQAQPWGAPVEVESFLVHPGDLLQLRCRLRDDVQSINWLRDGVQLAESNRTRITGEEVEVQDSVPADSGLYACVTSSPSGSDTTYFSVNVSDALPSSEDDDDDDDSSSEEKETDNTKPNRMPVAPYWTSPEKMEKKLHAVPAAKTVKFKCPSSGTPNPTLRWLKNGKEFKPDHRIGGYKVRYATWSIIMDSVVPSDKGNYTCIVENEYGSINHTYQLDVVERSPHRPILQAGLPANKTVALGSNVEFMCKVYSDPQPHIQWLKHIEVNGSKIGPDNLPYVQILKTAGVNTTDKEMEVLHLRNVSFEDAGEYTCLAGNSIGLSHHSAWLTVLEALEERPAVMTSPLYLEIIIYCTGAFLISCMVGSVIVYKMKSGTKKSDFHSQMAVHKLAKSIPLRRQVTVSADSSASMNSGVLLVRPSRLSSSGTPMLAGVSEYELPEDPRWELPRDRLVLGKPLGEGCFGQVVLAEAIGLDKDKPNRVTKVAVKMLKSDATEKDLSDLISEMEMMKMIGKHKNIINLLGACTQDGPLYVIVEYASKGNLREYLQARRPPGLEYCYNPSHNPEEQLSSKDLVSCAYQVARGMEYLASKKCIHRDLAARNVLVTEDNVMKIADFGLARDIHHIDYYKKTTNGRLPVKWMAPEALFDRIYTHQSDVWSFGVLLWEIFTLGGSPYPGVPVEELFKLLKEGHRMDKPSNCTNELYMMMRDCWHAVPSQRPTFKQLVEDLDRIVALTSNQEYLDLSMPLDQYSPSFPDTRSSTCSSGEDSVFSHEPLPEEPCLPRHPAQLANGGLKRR
Sequence of VEGFR-2 (P35968 20-1356, species assumed): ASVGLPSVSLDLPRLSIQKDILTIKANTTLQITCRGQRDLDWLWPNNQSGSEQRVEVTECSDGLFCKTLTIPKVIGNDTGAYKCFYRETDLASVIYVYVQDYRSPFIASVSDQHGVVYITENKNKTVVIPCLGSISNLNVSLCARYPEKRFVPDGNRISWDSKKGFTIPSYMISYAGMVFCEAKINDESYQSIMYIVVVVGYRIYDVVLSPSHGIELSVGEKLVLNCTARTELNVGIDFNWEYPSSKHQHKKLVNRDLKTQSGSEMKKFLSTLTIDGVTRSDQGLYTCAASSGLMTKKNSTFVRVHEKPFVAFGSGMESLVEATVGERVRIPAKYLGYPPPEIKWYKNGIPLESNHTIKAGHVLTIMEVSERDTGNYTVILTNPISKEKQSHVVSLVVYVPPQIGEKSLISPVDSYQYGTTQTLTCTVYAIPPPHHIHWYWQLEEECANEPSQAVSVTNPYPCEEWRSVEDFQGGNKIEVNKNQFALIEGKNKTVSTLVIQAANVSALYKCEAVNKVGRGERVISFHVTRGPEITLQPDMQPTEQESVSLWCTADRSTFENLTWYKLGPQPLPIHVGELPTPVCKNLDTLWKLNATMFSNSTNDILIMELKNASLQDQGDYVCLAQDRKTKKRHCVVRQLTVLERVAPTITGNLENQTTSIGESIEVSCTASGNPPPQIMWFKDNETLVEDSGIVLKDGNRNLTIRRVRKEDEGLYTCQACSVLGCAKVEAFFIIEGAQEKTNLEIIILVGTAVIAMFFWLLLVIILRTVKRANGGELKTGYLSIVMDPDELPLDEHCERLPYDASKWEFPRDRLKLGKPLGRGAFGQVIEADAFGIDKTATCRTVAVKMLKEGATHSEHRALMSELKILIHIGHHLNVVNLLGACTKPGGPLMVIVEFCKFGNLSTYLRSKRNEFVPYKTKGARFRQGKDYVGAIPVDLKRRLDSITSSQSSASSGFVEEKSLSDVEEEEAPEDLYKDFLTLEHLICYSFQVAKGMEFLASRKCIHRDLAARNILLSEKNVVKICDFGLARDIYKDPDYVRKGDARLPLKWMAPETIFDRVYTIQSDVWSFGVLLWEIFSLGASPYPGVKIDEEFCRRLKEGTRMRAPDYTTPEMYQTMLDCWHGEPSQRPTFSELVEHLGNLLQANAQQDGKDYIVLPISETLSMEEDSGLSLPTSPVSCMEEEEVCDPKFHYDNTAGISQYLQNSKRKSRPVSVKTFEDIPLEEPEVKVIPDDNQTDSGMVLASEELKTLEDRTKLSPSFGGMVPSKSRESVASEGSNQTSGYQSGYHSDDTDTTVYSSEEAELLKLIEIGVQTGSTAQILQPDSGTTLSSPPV

SMILES	in-vitro inhibitory activity on InsR [1]	in-vitro inhibitory activity on VEGFR-2 [2]	in-vitro inhibitory activity on FGFR-1 [3]	in-vitro inhibitory activity on VEGFR-3 [4]	inhibition of the proliferation of HUVEC VEGF stimulated cells [5]	in-vitro inhibitory activity on PDGFR-alpha [6]	in-vitro inhibitory activity on Her-2 [7]	hygroscopicity [8]	amorphisation [9]	solubility [10]
CN1CCN(C(=O)N(C)c2ccc(N/C(=C3\C(=O)Nc4cc(C(=O)O)ccc43)c3ccccc3)cc2)CC1 [3-Z-[1-(4-(N-((4-methyl-piperazin-1-yl)-carbonyl)-N-methyl-amino)-anilino)-1-phenyl-methylene]-6-carboxy-2-indolinone]	inhibits	inhibits	inhibits	inhibits	inhibits	inhibits	inhibits	–	–	–
CCS(=O)(=O)O.COC(=O)c1ccc2c(c1)NC(=O)/C2=C(\Nc1ccc(N(C)C(=O)CN2CCN(C)CC2)cc1)c1ccccc1 [monoethanesulphonate, 3-Z-[1-(4-(N-((4-methyl-piperazin-1-yl)-methylcarbonyl)-N-methyl-amino)-anilino)-1-phenyl-methylene]-6-methoxycarbonyl-2-indolinone-monoethanesulphonate]	–	–	–	–	–	–	–	not hygroscopic	low amorphisation	readily soluble
